{"source": "patent US7618623B2", "about": "“Hybrid adeno-retroviral vector for the transfection of cells” (priority 2000, dated 2009)", "key": {"[1]": {"test_system": "HSG cells", "description": "HSG cells were a generous gift from […]. M. Sato (Tokushima University, Japan) (Shirasuna et al., Cancer 48:745, 1981) and were maintained in vitro as previously described (He et al., Pflugers Arch., 36:416, 1990). For the experiments presented herein, HSG cells were dispersed from semi-confluent plates using a solution of Versene 1:5000 in Hanks' balanced salt solution without calcium and magnesium (BioFluids, Rockville Md.). Cells were then resuspended in fresh media consisting of a 1:1 mixture of Eagle's Minimal Essential Medium, (Dulbecco's Modification) and Ham's F-12 supplemented with 2 mM glutamine (BioFluids), 10% fetal calf serum (Hyclone, Logan, Utah), and 100 units/ml penicillin, 100 μg/ml streptomycin and 2.5 μg/ml fungizone (BioFluids).\nCells were grown in 96-well culture plates at a density of 1×10^4 cells/well. […] Six hours after infection, GCV (Cytovene®, Syntex Laboratories, Inc., Palo Alto Calif.) was added to the media at concentrations of 0.5, 5, or 50 μM. After incubation for different time points, the sensitivity of cells to the GCV prodrug was evaluated using two separate methods, assaying either with the tetrazolium salt of 3-(4,5-dimethylthiazol-2-yl)-2,5-diphenyl […] bromide (MTT assay, Chemicon International Inc., Temecula, Calif.) or direct cell counting after trypan blue staining (Bio-Whittaker, Walkersville, Md.).\nTo assess the ability of the HSV-tk transgene to function in HSG cells, cell viability was studied on tissue culture plastic using the MTT assay. HSG cells were infected with different vector MOIs, and thereafter incubated with several concentrations of GCV (Candotti et al., Cancer Gene Ther., 7:574, 2000)."}, "[2]": {"test_system": "HSG cells", "test": "Cell death on fibronectin-coated poly-L-lactic acid disks (crystal violet staining, cell count)", "assay_type": "cell-based, human", "details": "for cell death: cells infected with AdLTR.CMV-tk (MOI of 10)", "description": "Two-dimensional films of poly-L-lactic acid (Boehringer Ingelheim Inc., Winchester, Va.) were produced by melt processing polymer pellets between sheets of aluminum foil using a Carver press at 350° F. to create disks with diameters of 20-25 mm. The disks were sterilized using y-irradiation for ˜150 min with a dose of 20,000 Gy.\nDisks were gently placed in each well of a 6-well tissue culture plate (Becton Dickinson, Franklin Lakes, N.J.) and immersed in phosphate-buffered saline (PBS; GibcoBRL, Grand Island, N.Y.) for 18 hours with 5 μg/ml fibronectin at 37° C. (Aframian et al., Tissue Engin. 6:209, 2000). Thereafter, the coated disks were blocked for 1 hr with bovine serum albumin (Calbiochem-Novabiochem Corp., La Jolla, Calif.) at 37° C. and then gently washed twice with PBS (Aframian et al., op. cit.). Cell suspensions (1×10^5 cells; 2 ml/well) were added in complete culture medium and incubated at 37° C. for an additional 18 hours. Thereafter, the medium was discarded, and 10 MOI of virus diluted in PBS was added for an additional 6 hr. Next, GCV diluted in medium was added, and after an additional 125 hr the disks were washed twice in PBS, then stained with 0.2% crystal violet in 20% ethanol for 20 min (Aframian et al., op. cit). The disks were then rinsed twice with PBS and examined under a light microscope using a 10× objective. Three randomly selected photomicrographs were obtained from each specimen using 200 ASA color slide film (Elite chrome, Kodak, Rochester, N.Y.). The slides were scanned to convert them to digital images and, using Adobe Photoshop®, three 200 μm^2 regions were randomly chosen from each field, and cell number was determined visually.\nAn artificial salivary gland device will have cells grown as a monolayer on a fibronectin-coated poly-L-lactic acid substratum (Aframian et al., Tissue Engin. 6:209, 2000), rather than on tissue culture plastic. Therefore, the ability of GCV to elicit HSG cell death when the cells were attached to poly-L-lactic acid disks pre-coated with 5 μg/ml of human fibronectin was determined. […] The GCV effect ranged from 40% cell death at 0.5 μM GCV to 95% cell death when the GCV concentration was 50 μM."}, "[3]": {"test_system": "HSG cells", "test": "Trypan blue staining and manual cell counting on plastic", "assay_type": "cell-based, human", "details": "cells infected with AdLTR.CMV-tk at a MOI of 10; 0.5, 5, 50 μM GCV", "description": "HSG cells were a generous gift from […].\nTo determine the surviving cell number under these growth conditions on a plastic substrate following GCV treatment, in separate experiments trypan blue staining was used as well as manual cell counting."}}, "note": "Read-outs that look alike come from different tables or passages of the source.", "data": [{"smiles": "Nc1nc(O)c2ncn(COC(CO)CO)c2n1", "note": "[GCV, ganciclovir]", "values": [{"measurement": "effect on HSG cell growth and viability", "setting": "[1]; GCV doses up to 50 μM, absence of AdLTR.CMV-tk infection", "result": "does not affect"}, {"measurement": "effect of GCV on viability", "setting": "[1]; cells infected with AdLTR.CMV-tk at a MOI of 1", "result": "without effect"}, {"measurement": "reduced viability compared to no GCV treatment", "setting": "[1]; cells infected with AdLTR.CMV-tk at a MOI of 10, all prodrug concentrations (0.5, 5, 50 μM)", "result": "> 50", "unit": "%"}, {"measurement": "effect of GCV on viability", "setting": "[1]; uninfected cells, 0.5, 5, 50 μM GCV", "result": "without effect"}, {"measurement": "appearance of cell monolayers", "setting": "[2]; 50 μM GCV alone, no infection", "result": "appeared normal"}, {"measurement": "cells remaining on the disk", "setting": "[2]; AdLTR.CMV-tk at a MOI of 10 followed by 50 μM of GCV", "result": "loss of almost all of the cells"}, {"measurement": "cell death", "setting": "[2]; 0.5 μM GCV", "result": 40, "unit": "%"}, {"measurement": "cell death", "setting": "[2]; 50 μM GCV", "result": 95, "unit": "%"}, {"measurement": "decrease in number of viable cells compared with cells infected with 10 MOI alone", "setting": "[3]", "result": "up to 3 fold"}]}]}
